Patent US20170216252A1, “ANTI-BACTERIAL PYRUVATE KINASE MODULATOR COMPOUNDS, COMPOSITIONS, USES AND METHODS” (SIMON FRASER UNIVERSITY, priority 2014, published 2017)
≈ marks a conversion by molar mass, not a printed value. Where two headings read alike, the source gives them in different places.

How the values were obtained:
MRSA PK = target: T1, MRSA PK (Staphylococcus aureus, UniProt Q6GG09); assay: MRSA PK activity, continuous LDH-coupled assay; type: biochemical, S. aureus (MRSA strain Sanger 252)
T1 construct: His tag (pET-28a(+) vector) (N); made in house; host or cells: E. coli BL-21 (DE3)
Method in brief: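 Activity was tracked as the 340 nm absorbance fall from NADH oxidation via coupled LDH, at 30 °C for ≤5 min. Reactions began on adding 15 nM recombinant His-tagged S. aureus PK, with inhibitor DMSO kept ≤1%. Four-parameter dose–response fitting gave IC50.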

S. aureus ATCC 29213 = assay: In vitro susceptibility, broth microdilution MIC; type: cell-based, Staphylococcus aureus
Method in brief: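 The MIC against S. aureus 29213 was determined by CLSI 2-fold serial broth microdilution in Mueller Hinton broth. Plates were incubated for 18–24 h at 37 °C and read at OD600 with background subtracted. The MIC was the lowest concentration giving complete growth inhibition versus compound-free wells.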

[1] = system: A. baumannii (ATCC 19606); assay: Broth microdilution MIC; type: cell-based; conditions: Acinetobacter baumannii
Protocol: (§1) The antimicrobial activities of PK inhibitor candidates were determined using the 96-well microtiter standard 2-fold serial broth microdilution method as described by CLSI (formerly NCCLS) with the various gram-positive and gram-negative bacteria species mentioned above. Bacteria from a single colony were grown, overnight in either BHI Broth (VRE), mueller hinton broth (S. aureus 29213; MRSA USA400) or L-broth (E. coli, P. aeruginosa, S. typhimuriu, K. Pneumonia and A. baumannii). […] Culture plates were incubated for 18-24 h at 37° C., and optical density at 600 nm (OD600) was measured using a Benchmark Plus™ microplate spectrophotometer (Bio-Rad™). The absorbance control values for the series containing CAMHB and inhibitor were subtracted as background from the corresponding infected wells. The MIC was defined as the lowest concentration of test compound leading to complete inhibition of cell growth in relationship to compound-free control wells as determined by optical density. […] All assays were run in triplicate (Tables 1-6) or duplicate. Experiments were replicated at least twice to verify reproducibility using the above conditions.
(§2) The antimicrobial activity of selected compounds against the gram negative bacteria Klebsiella pneumoniae, Acinetobacter baumannii, E. coli, Pseudomonas aeruginosa and Salmonella typhimurium, as well as additional gram positive bacteria, including drug-resistant strains, was tested according to the procedures provided under “General Methodologies” above.

K. pneumoniae (C238) = assay: Broth microdilution MIC; type: cell-based; conditions: Klebsiella pneumoniae, read-out: MIC (μg/mL) A
Protocol: as §1, §2

P. aeruginosa (PA01) = assay: Broth microdilution MIC; type: cell-based; conditions: Pseudomonas aeruginosa
Protocol: as §1, §2

S. pyogenes (ATCC700294) = assay: Broth microdilution MIC; type: cell-based; conditions: Streptococcus pyogenes
Protocol: as §1, §2

S. typhimurium (SL 1344) = assay: Broth microdilution MIC; type: cell-based; conditions: Salmonella enterica
Protocol: as §1, §2

E. coli (DAS 1-IMP) = assay: microbe, parasite or virus in culture; type: cell-based, Escherichia coli; conditions: for MIC: Escherichia coli, read-out: MIC (μg/mL) C, E. coli (DAS 1-IMP)
Protocol: as §1, §2

VRE#2 (2010A) = assay: Broth microdilution MIC; type: cell-based, vancomycin-resistant Enterococcus; conditions: Enterococcus, read-out: MIC (μg/mL) F
Protocol: as §1, §2

MRSA MW2 (USA400) = assay: Broth microdilution MIC; type: cell-based; conditions: Staphylococcus aureus, read-out: MIC (μg/mL) G
Protocol: as §1, §2

S. aureus ATCC 29123 = assay: Neutropenic mouse Staphylococcus aureus thigh infection model; type: in vivo; conditions: vancomycin control, 10 mg/kg IP at 2 and 8 h, 24 h endpoint
Protocol: The antimicrobial activity of compound 178 against S. aureus ATCC 29123 was tested in vivo using the neutropenic mouse Staphylococcus aureus thigh infection model. […] Animals were individually monitored for adverse reactions for 30 min post-infection. […] Vancomycin was administered as a solution in PBS. The test compounds were administered as outlined in Table 12 at 2 and 8 hours post-infection and animals were individually monitored for adverse reactions for 30 min after each injection. All animals were then monitored hourly from 20 hours post infection to the endpoint (t=24 hr post infection). At the indicated timepoint, animals were sacrificed and the injected thigh collected. Quantitative enumeration of bacterial load was determined by plating serial dilutions from homogenized thigh muscles. Homogenized muscle was in a total of 2 mL volume, from which a 1 in 10 dilution was prepared (100 μL into 900 μL saline). From this a series of dilutions were prepared and plated on Mueller Hinton agar plates. […] At the end of this time colony counts were determined and the final CFU per mL calculated.

[2] = Staphylococcus aureus, ATCC29213, S. aureus (ATCC29213), Table 9, read-out: MIC (μg/mL) H
[3] = Staphylococcus aureus, ATCC29213, Table 8, tested at least in duplicate, differing values all given, read-out: MIC
[4] = Table 8, tested at least in duplicate, differing values all given
[5] = ATCC19606, A. baumannii (ATCC 19606), read-out: MIC (μg/mL) B
[6] = Tables 1-6, 2 mM ADP, 10 mM PEP, 15 nM PK, read-out: IC50
[7] = Staphylococcus aureus, ATCC29213, Tables 1-6 and text, minimum concentration to give >98% inhibition of growth, read-out: MIC

T1 sequence (Q6GG09 whole entry): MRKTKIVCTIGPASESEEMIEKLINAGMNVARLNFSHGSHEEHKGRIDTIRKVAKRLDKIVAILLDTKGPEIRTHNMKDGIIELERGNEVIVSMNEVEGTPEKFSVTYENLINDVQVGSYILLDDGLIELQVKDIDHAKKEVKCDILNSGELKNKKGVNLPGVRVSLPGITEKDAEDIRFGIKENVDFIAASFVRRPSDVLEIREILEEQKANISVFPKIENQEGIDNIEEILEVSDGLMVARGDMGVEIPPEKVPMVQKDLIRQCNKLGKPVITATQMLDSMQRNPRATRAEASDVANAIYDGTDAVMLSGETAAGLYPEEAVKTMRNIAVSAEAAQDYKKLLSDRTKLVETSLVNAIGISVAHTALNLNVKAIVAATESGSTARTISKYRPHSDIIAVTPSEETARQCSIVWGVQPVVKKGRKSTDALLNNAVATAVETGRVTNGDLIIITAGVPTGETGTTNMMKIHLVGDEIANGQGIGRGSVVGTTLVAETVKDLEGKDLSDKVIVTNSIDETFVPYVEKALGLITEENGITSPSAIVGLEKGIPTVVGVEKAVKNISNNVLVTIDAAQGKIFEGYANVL

With `O=C(c1c(CCc2ccc(Cl)cc2)[nH]c2cc(Br)ccc12)C(F)(F)F` [Compound 167, 1-(6-Bromo-2-(4-chlorophenethyl)-1H-indol-3-yl)-2,2,2-trifluoroethanone] the IC50 (MRSA PK) was 100 to 1000 nM, the MIC (S. aureus ATCC 29213; [2]) was 1.5 µg/mL (≈ 3.48 µM) and the MIC (S. aureus ATCC 29213; [3]) was 2 µg/mL (≈ 4.64 µM). For the same molecule, the “MIC” value (S. aureus ATCC 29213; [4]) was 1 µg/mL (≈ 2.32 µM), the MIC [1, 5] was over 64 µg/mL and the MIC (K. pneumoniae (C238); K. pneumoniae (C238)) was 1 µg/mL (≈ 2.32 µM). The MIC (P. aeruginosa (PA01)) was over 64 µg/mL, the MIC (S. pyogenes (ATCC700294)) was 2 µg/mL (≈ 4.64 µM) and the MIC (S. typhimurium (SL 1344)) was over 64 µg/mL. For the same molecule, the “MIC (μg/mL) C” value (E. coli (DAS 1-IMP); E. coli (DAS 1-IMP)) was 8 µg/mL (≈ 18.6 µM), the MIC (E. coli (DAS 1-IMP)) was 4 µg/mL (≈ 9.29 µM) and the MIC (VRE#2 (2010A); VRE#2 (2010A)) was 1 µg/mL (≈ 2.32 µM).

Molecule `CN[C@H](CC(C)C)C(=O)N[C@H]1C(=O)N[C@@H](CC(N)=O)C(=O)N[C@H]2C(=O)N[C@H]3C(=O)N[C@H](C(=O)N[C@H](C(=O)O)c4cc(O)cc(O)c4-c4cc3ccc4O)[C@H](O)c3ccc(c(Cl)c3)Oc3cc2cc(c3O[C@@H]2O[C@H](CO)[C@@H](O)[C@H](O)[C@H]2O[C@H]2C[C@](C)(N)[C@H](O)[C@H](C)O2)Oc2ccc(cc2Cl)[C@H]1O` [Vancomycin, reference compound] has an MIC (S. aureus ATCC 29213; Staphylococcus aureus, ATCC29213) of 1 µg/mL (≈ 0.69 µM), an MIC (S. aureus ATCC 29213; Staphylococcus aureus, ATCC29213, read-out: MIC (μg/mL) H) of 1 µg/mL (≈ 0.69 µM) and an MIC ([1]; ATCC19606, read-out: MIC (μg/mL) B) of 64 µg/mL (≈ 44.2 µM). The MIC (K. pneumoniae (C238)) was 4 µg/mL (≈ 2.76 µM), the MIC (MRSA MW2 (USA400)) was 1 µg/mL (≈ 0.69 µM) and the MIC (VRE#2 (2010A); VRE) was 64 µg/mL (≈ 44.2 µM). For the same molecule, the “median CFU/thigh” value (S. aureus ATCC 29123) was 1.91×10^3 CFU/thigh.

Molecule `O=C(O)c1c(/C=C/c2ccc(Cl)cc2)[nH]c2cc(Br)ccc12` [Compound 123, (E)-6-Bromo-2-(4-chlorostyryl)-1H-indole-3-carboxylic acid] has an IC50 (MRSA PK) of 100 to 1000 nM, an MIC (S. aureus ATCC 29213; [2]) of 16 µg/mL (≈ 42.5 µM) and an MIC [1, 5] of 64 µg/mL (≈ 170 µM). For the same molecule, the MIC (K. pneumoniae (C238); K. pneumoniae (C238)) was 32 µg/mL (≈ 85 µM), the MIC (MRSA MW2 (USA400); MRSA MW2 (USA400)) was 32 µg/mL (≈ 85 µM) and the MIC (P. aeruginosa (PA01)) was over 64 µg/mL. It also gave an MIC (S. typhimurium (SL 1344)) of over 64 µg/mL, an MIC (E. coli (DAS 1-IMP)) of 64 µg/mL (≈ 170 µM) and an MIC (VRE#2 (2010A); VRE#2 (2010A)) of 32 µg/mL (≈ 85 µM).

In the case of `COC(=O)c1c(/C=C/c2ccc(Cl)cc2)[nH]c2cc(Br)ccc12` [Compound 124, (E)-methyl 6-bromo-2-(4-chlorostyryl)-1H-indole-3-carboxylate], the IC50 (MRSA PK) is reported as under 50 nM, the MIC (S. aureus ATCC 29213; [2]) is reported as 2 µg/mL (≈ 5.12 µM) and the MIC (S. aureus ATCC 29213; [3]) is reported as 4 µg/mL (≈ 10.2 µM). The “MIC” value (S. aureus ATCC 29213; [4]) was 2 µg/mL (≈ 5.12 µM), the MIC [1, 5] was over 64 µg/mL and the MIC (K. pneumoniae (C238); K. pneumoniae (C238)) was 2 µg/mL (≈ 5.12 µM). The MIC (MRSA MW2 (USA400); MRSA MW2 (USA400)) was 2 µg/mL (≈ 5.12 µM), the MIC (P. aeruginosa (PA01)) was over 64 µg/mL and the MIC (S. typhimurium (SL 1344)) was over 64 µg/mL. For the same molecule, the MIC (E. coli (DAS 1-IMP)) was over 64 µg/mL and the MIC (VRE#2 (2010A); VRE#2 (2010A)) was 8 µg/mL (≈ 20.5 µM).

Molecule `COc1cccc(OC)c1C(=O)N[C@@H]1C(=O)N2[C@@H]1SC(C)(C)[C@@H]2C(=O)O` [Methicillin, methicillin, reference compound] has an MIC (S. aureus ATCC 29213; [2]) of 2 µg/mL (≈ 5.26 µM), an MIC [1, 5] of over 64 µg/mL and an MIC (K. pneumoniae (C238); K. pneumoniae (C238)) of 4 µg/mL (≈ 10.5 µM). It also gave an MIC (MRSA MW2 (USA400); MRSA MW2 (USA400)) of 32 µg/mL (≈ 84.1 µM), an MIC (S. pyogenes (ATCC700294)) of 1 µg/mL (≈ 2.63 µM) and an MIC (VRE#2 (2010A); VRE#2 (2010A)) of 64 µg/mL (≈ 168 µM).

`O=C(O)Cn1c(-c2cc3ccc(Br)cc3[nH]2)cc2cc(Br)ccc21` [Compound 14, 2-(5,6′-Dibromo-1H,1′H-[2,2′-biindol]-1-yl)acetic acid] showed an IC50 (MRSA PK; [6]) of 11.1 nM, an MIC (S. aureus ATCC 29213; [7]) of over 64 µg/mL and a melting point of 321 to 323 °C.

For `Brc1ccc2cc(-c3cc4cc(-c5ccccc5)ccc4[nH]3)[nH]c2c1` [Compound 10g, 6′-Bromo-5-phenyl-1H,1′H-2,2′-biindole], the IC50 (MRSA PK; [6]) was 2.2 nM, the MIC (S. aureus ATCC 29213; [7]) was over 64 µg/mL and the melting point was 237 to 239 °C.

`O=C(c1c(/C=C/c2ccc(Cl)cc2)[nH]c2cc(Br)ccc12)C(F)(F)F` [Compound 168, (E)-1-(6-Bromo-2-(4-chlorostyryl)-1H-indol-3-yl)-2,2,2-trifluoroethanone] showed an IC50 (MRSA PK) of 100 to 1000 nM, an MIC (S. aureus ATCC 29213; [2]) of 2 µg/mL (≈ 4.67 µM) and an MIC (S. aureus ATCC 29213; [3]) of 1 µg/mL (≈ 2.33 µM). For the same molecule, the “MIC” value (S. aureus ATCC 29213; [4]) was 2 µg/mL (≈ 4.67 µM), the MIC (MRSA MW2 (USA400); MRSA MW2 (USA400)) was 0.5 µg/mL (≈ 1.17 µM) and the MIC (VRE#2 (2010A); VRE#2 (2010A)) was 1 µg/mL (≈ 2.33 µM).

`Brc1ccc2cc(-c3ccc(-c4cc5ccccc5[nH]4)cc3)[nH]c2c1` [Compound 33c, 2-(4-(1H-indol-2-yl)phenyl)-6-bromo-1H-indole] showed an IC50 (MRSA PK; [6]) of 5.6 nM, an MIC (S. aureus ATCC 29213; [7]) of over 64 µg/mL and a melting point of over 300 °C.
